Source: BindingDB's records for doi:10.1021/acschembio.7b00186 (University of Strasburg, 2017)

Tests used:
[1] = biological target: T1, ADP-ribosyl cyclase/cyclic ADP-ribose hydrolase [1-303] (Blood fluke, UniProt Q32TF5); assay: NAD glycohydrolase assay; details: pH 7.4; 37 °C
T1 construct: 1-303
T1 sequence (Q32TF5 whole entry): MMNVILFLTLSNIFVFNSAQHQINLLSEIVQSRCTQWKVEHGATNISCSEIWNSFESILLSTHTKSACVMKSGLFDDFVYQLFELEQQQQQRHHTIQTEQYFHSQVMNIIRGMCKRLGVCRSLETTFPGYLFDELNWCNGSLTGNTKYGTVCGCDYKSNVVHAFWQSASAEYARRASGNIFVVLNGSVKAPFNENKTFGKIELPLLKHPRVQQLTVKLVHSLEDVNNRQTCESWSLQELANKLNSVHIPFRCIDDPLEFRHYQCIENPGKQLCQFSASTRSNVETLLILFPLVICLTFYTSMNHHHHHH
Method: (§1) SmNACE activity and inhibition were measured with a sensitive, continuous, fluorometric assay platform that used 1,N6-ethenonicotinamide adenine dinucleotide (εNAD; Sigma-Aldrich, Inc.) as a substrate. This assay consists of measuring the appearance of the fluorescent εADP-ribose reaction product with excitation (λexc) and emission (λem) wavelengths of 310 and 410 nm, respectively, at 37 °C using the thermostatically controlled Spectramax Gemini XPS fluorescence plate reader (100 uL reaction volume; Molecular Devices, LLC) or the thermostatically controlled RF-5301PC spectrofluorophotometer (1 mL reaction volume; Shimadzu Scientific Instruments). The biochemical assay with 100 ug/mL of recombinant SmNACE was carried out in a 10 mM potassium phosphate buffer, at pH 7.4, containing 0.05% (w/v) emulphogen.

[2] = biological target: T2, ADP-ribosyl cyclase/cyclic ADP-ribose hydrolase (Blood fluke, UniProt Q32TF5); assay: NAD glycohydrolase assay; details: pH 7.4; 37 °C
T2 sequence (Q32TF5 whole entry): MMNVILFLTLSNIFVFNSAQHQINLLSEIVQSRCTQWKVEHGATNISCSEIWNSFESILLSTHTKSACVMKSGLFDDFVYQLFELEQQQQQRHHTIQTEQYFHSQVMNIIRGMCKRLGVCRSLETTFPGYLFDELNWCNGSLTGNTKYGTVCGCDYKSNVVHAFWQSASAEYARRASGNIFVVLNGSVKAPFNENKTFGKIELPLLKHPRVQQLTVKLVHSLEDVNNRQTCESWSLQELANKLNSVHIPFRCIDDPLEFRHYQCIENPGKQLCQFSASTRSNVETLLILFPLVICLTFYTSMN
Method: as §1

| SMILES | IC50 [1] [µM] | IC50 [2] [µM] |
| --- | --- | --- |
| Cc1occc1C(=O)N/N=C/c1ccc(O)c(O)c1 [SmNACE inhibitor, 1] | 88 | 69 |
| Cc1occc1C(=O)N/N=C/c1cc(Cl)ccc1O [SmNACE inhibitor, 2] | 0.033 | 0.126 |
| O=C(Nc1nc(=O)c2ccccc2s1)c1ccco1 [SmNACE inhibitor, 3] | 2.2 | > 20 |
| Cc1ccc2c(c1)C[N]1NC(C3CCOC3C)[O][Zn+]1[O]2 (stereo not drawn) [Zn(II) complex of 2] | 0.33 | > 200 |
